From patent US20230183640A1, “METABOLIC INHIBITORS WITH EFFICACY FOR INHIBITING SULFIDE PRODUCTION IN HARSH ENVIRONMENTS” (MC (US) 3 LLC, priority 2020, published 2023)

What was measured:
Assay in all cases: Log (Growth) efficacy in anaerobic conditions, non-SRB bacteria
Assay type in all cases: cell-based
[1] = tested on: Enterobacter aerogenes 13048
Experimental: (§1) Enumerations were done at each time point, which included 0 hour, 1 hour, 4 hours and 24 hours. Enumeration plates were made to determine the log growth in each dosed sample. For this process, enumeration plates were prepared by adding 180 μL fresh TSB. 20 μL was taken from each well of the challenge plates and transferred to the enumeration plates using a 20-200 μL multichannel pipette. Enumeration plates were mixed three times using the multichannel pipette and serial diluted down the plate tenfold (20 μL into 180 μL). This serial dilution process was repeated for all challenge plate rows giving a total of 6 enumeration plates. These enumeration plates were read after 24-hours and by counting the number of turbid wells in a row.
(§2) Klebsiella pneumoniae 13883, Enterobacter aerogenes 13048, Escherichia coli 8739, and Enterococcus faecalis 29212 cultures were made by adding one loop from a freezer stock to 10 mL of fresh Phenol Red Media. These were grown anaerobically at 30° C. for 24 hours.
(§3) Following the 24-hour incubation, each culture was diluted to 1:10 in fresh Phenol Red Media. Using these cultures, two deep well plates were prepared. Edge wells were not used due to their inherent variability and evaporation of the media. Each of the components were added at their respective concentrations for a final volume of 250 μL per well. In Table 9, the concentrations of the compound C1 used for the experiments are listed. Each experiment was done with at least three replicates for different treatments and non-treatment controls. Plates were then sealed with a titer-top and incubated at room temperature in anaerobic chamber. Enumerations were conducted at 0 hour, 1 hour, 4 hours, and 24 hours. The process for these enumerations was the same as that done for example 2; however, utilizing phenol red media instead of tryptic soy broth.

[2] = tested on: Enterococcus faecalis 29212
Experimental: as §1, §2, §3

Escherichia coli 8739 = tested on: Escherichia coli 8739
Experimental: as §1, §2, §3

[3] = tested on: Klebsiella pneumoniae 13883
Experimental: as §1, §2, §3

O=C(CN1C(=O)c2cccc3cccc(c23)C1=O)NO [C1] was tested, and the “Log (Growth)” value ([1]; 0 hours, 15.625 PPM) was 6.333, the “Log (Growth)” value ([1]; 0 hours, 31.25 PPM) was 6.667 and the “Log (Growth)” value ([1]; 0 hours, 62.5 PPM) was 6.333. The “Log (Growth)” value ([1]; 0 hours, 125 PPM) was 6.333, the “Log (Growth)” value ([1]; 0 hours, 250 PPM) was 6.667 and the “Log (Growth)” value ([1]; 0 hours, 500 PPM) was 6.333. The “Log (Growth)” value ([1]; 1 hour, 15.625 PPM) was 7.000, the “Log (Growth)” value ([1]; 1 hour, 31.25 PPM) was 6.333 and the “Log (Growth)” value ([1]; 1 hour, 62.5 PPM) was 7.000. For the same compound, the “Log (Growth)” value ([1]; 1 hour, 125 PPM) was 6.000, the “Log (Growth)” value ([1]; 1 hour, 250 PPM) was 5.667 and the “Log (Growth)” value ([1]; 1 hour, 500 PPM) was 5.667. For the same compound, the “Log (Growth)” value ([1]; 4 hours, 15.625 PPM) was 7.333, the “Log (Growth)” value ([1]; 4 hours, 31.25 PPM) was 7.000 and the “Log (Growth)” value ([1]; 4 hours, 62.5 PPM) was 4.667. For the same compound, the “Log (Growth)” value ([1]; 4 hours, 125 PPM) was 5.000, the “Log (Growth)” value ([1]; 4 hours, 250 PPM) was 5.333 and the “Log (Growth)” value ([1]; 4 hours, 500 PPM) was 5.333. The “Log (Growth)” value ([1]; 24 hours, 15.625 PPM) was 7.667, the “Log (Growth)” value ([1]; 24 hours, 31.25 PPM) was 6.667 and the “Log (Growth)” value ([1]; 24 hours, 62.5 PPM) was 6.333. For the same compound, the “Log (Growth)” value ([1]; 24 hours, 125 PPM) was 6.000, the “Log (Growth)” value ([1]; 24 hours, 250 PPM) was 6.333 and the “Log (Growth)” value ([1]; 24 hours, 500 PPM) was 6.000. For the same compound, the “Log (Growth)” value ([2]; 0 hours, 15.625 PPM) was 7.000, the “Log (Growth)” value ([2]; 0 hours, 31.25 PPM) was 6.667 and the “Log (Growth)” value ([2]; 0 hours, 62.5 PPM) was 7.000. The “Log (Growth)” value ([2]; 0 hours, 125 PPM) was 6.333, the “Log (Growth)” value ([2]; 0 hours, 250 PPM) was 7.000 and the “Log (Growth)” value ([2]; 0 hours, 500 PPM) was 6.667. The “Log (Growth)” value ([2]; 1 hour, 15.625 PPM) was 6.667, the “Log (Growth)” value ([2]; 1 hour, 31.25 PPM) was 6.000 and the “Log (Growth)” value ([2]; 1 hour, 62.5 PPM) was 6.333. For the same compound, the “Log (Growth)” value ([2]; 1 hour, 125 PPM) was 5.667, the “Log (Growth)” value ([2]; 1 hour, 250 PPM) was 6.333 and the “Log (Growth)” value ([2]; 1 hour, 500 PPM) was 6.000. The “Log (Growth)” value ([2]; 4 hours, 15.625 PPM) was 6.667, the “Log (Growth)” value ([2]; 4 hours, 31.25 PPM) was 5.667 and the “Log (Growth)” value ([2]; 4 hours, 62.5 PPM) was 4.667. For the same compound, the “Log (Growth)” value ([2]; 4 hours, 125 PPM) was 4.333, the “Log (Growth)” value ([2]; 4 hours, 250 PPM) was 4.333 and the “Log (Growth)” value ([2]; 4 hours, 500 PPM) was 4.667. The “Log (Growth)” value ([2]; 24 hours, 15.625 PPM) was 6.333, the “Log (Growth)” value ([2]; 24 hours, 31.25 PPM) was 5.333 and the “Log (Growth)” value ([2]; 24 hours, 62.5 PPM) was 5.667. For the same compound, the “Log (Growth)” value ([2]; 24 hours, 125 PPM) was 5.667, the “Log (Growth)” value ([2]; 24 hours, 250 PPM) was 4.333 and the “Log (Growth)” value ([2]; 24 hours, 500 PPM) was 4.000. The “Log (Growth)” value (Escherichia coli 8739; 0 hours, 15.625 PPM) was 7.000, the “Log (Growth)” value (Escherichia coli 8739; 0 hours, 31.25 PPM) was 6.667 and the “Log (Growth)” value (Escherichia coli 8739; 0 hours, 62.5 PPM) was 6.667. The “Log (Growth)” value (Escherichia coli 8739; 0 hours, 125 PPM) was 6.333, the “Log (Growth)” value (Escherichia coli 8739; 0 hours, 250 PPM) was 6.000 and the “Log (Growth)” value (Escherichia coli 8739; 0 hours, 500 PPM) was 6.333. For the same compound, the “Log (Growth)” value (Escherichia coli 8739; 1 hour, 15.625 PPM) was 7.000, the “Log (Growth)” value (Escherichia coli 8739; 1 hour, 31.25 PPM) was 6.000 and the “Log (Growth)” value (Escherichia coli 8739; 1 hour, 62.5 PPM) was 6.333. The “Log (Growth)” value (Escherichia coli 8739; 1 hour, 125 PPM) was 6.000, the “Log (Growth)” value (Escherichia coli 8739; 1 hour, 250 PPM) was 6.000 and the “Log (Growth)” value (Escherichia coli 8739; 1 hour, 500 PPM) was 6.000. For the same compound, the “Log (Growth)” value (Escherichia coli 8739; 4 hours, 15.625 PPM) was 6.667, the “Log (Growth)” value (Escherichia coli 8739; 4 hours, 31.25 PPM) was 6.667 and the “Log (Growth)” value (Escherichia coli 8739; 4 hours, 62.5 PPM) was 5.333. For the same compound, the “Log (Growth)” value (Escherichia coli 8739; 4 hours, 125 PPM) was 4.667, the “Log (Growth)” value (Escherichia coli 8739; 4 hours, 250 PPM) was 5.000 and the “Log (Growth)” value (Escherichia coli 8739; 4 hours, 500 PPM) was 4.333. The “Log (Growth)” value (Escherichia coli 8739; 24 hours, 15.625 PPM) was 6.000, the “Log (Growth)” value (Escherichia coli 8739; 24 hours, 31.25 PPM) was 4.000 and the “Log (Growth)” value (Escherichia coli 8739; 24 hours, 62.5 PPM) was 2.667. The “Log (Growth)” value (Escherichia coli 8739; 24 hours, 125 PPM) was 3.000, the “Log (Growth)” value (Escherichia coli 8739; 24 hours, 250 PPM) was 4.000 and the “Log (Growth)” value (Escherichia coli 8739; 24 hours, 500 PPM) was 2.667. The “Log (Growth)” value ([3]; 0 hours, 15.625 PPM) was 6.667, the “Log (Growth)” value ([3]; 0 hours, 31.25 PPM) was 6.667 and the “Log (Growth)” value ([3]; 0 hours, 62.5 PPM) was 6.667. For the same compound, the “Log (Growth)” value ([3]; 0 hours, 125 PPM) was 6.667, the “Log (Growth)” value ([3]; 0 hours, 250 PPM) was 6.000 and the “Log (Growth)” value ([3]; 0 hours, 500 PPM) was 6.000. The “Log (Growth)” value ([3]; 1 hour, 15.625 PPM) was 6.667, the “Log (Growth)” value ([3]; 1 hour, 31.25 PPM) was 5.667 and the “Log (Growth)” value ([3]; 1 hour, 62.5 PPM) was 5.000. The “Log (Growth)” value ([3]; 1 hour, 125 PPM) was 3.667, the “Log (Growth)” value ([3]; 1 hour, 250 PPM) was 4.333 and the “Log (Growth)” value ([3]; 1 hour, 500 PPM) was 4.333. The “Log (Growth)” value ([3]; 4 hours, 15.625 PPM) was 3.333, the “Log (Growth)” value ([3]; 4 hours, 31.25 PPM) was 2.000 and the “Log (Growth)” value ([3]; 4 hours, 62.5 PPM) was 2.000. For the same compound, the “Log (Growth)” value ([3]; 4 hours, 125 PPM) was 1.667, the “Log (Growth)” value ([3]; 4 hours, 250 PPM) was 2.333 and the “Log (Growth)” value ([3]; 4 hours, 500 PPM) was 2.000. The “Log (Growth)” value ([3]; 24 hours, 15.625 PPM) was 6.333, the “Log (Growth)” value ([3]; 24 hours, 31.25 PPM) was 4.667 and the “Log (Growth)” value ([3]; 24 hours, 62.5 PPM) was 5.667. The “Log (Growth)” value ([3]; 24 hours, 125 PPM) was 1.667, the “Log (Growth)” value ([3]; 24 hours, 250 PPM) was 0.000 and the “Log (Growth)” value ([3]; 24 hours, 500 PPM) was 0.000.
